Assay: xn = mol fraction of the nth substance listed
Conditions: 101 kPa, Liquid; for speed of sound: Sing-around technique in a fixed-path interferometer; for mass density: Vibrating tube method

CCCC[n+]1ccn(CC)c1.O=S(=O)([O-])C(F)(F)F + O
Conditions	mass density [kg/m3]	speed of sound [m/s]
278.15 K, x1 = 0.04992	1120.13	1524
278.15 K, x1 = 0.1001	1171.15	1521.3
278.15 K, x1 = 0.1498	1199.88	1514.7
278.15 K, x1 = 0.1998	1218.01	1505.6
278.15 K, x1 = 0.3013	1239.57	1484.6
278.15 K, x1 = 0.4012	1251.73	1467.7
278.15 K, x1 = 0.496	1259.25	1455.4
278.15 K, x1 = 0.6017	1265.19	1444.9
278.15 K, x1 = 0.7007	1269.28	1436.2
278.15 K, x1 = 0.8551	1274.04	1428
278.15 K, x1 = 0.9006	1275.29	1424.8
278.15 K, x1 = 1	1278.02	1420.6
288.15 K, x1 = 0.04992	1114.86	1527.1
288.15 K, x1 = 0.1001	1164.38	1513.5
288.15 K, x1 = 0.1498	1192.37	1500.2
288.15 K, x1 = 0.1998	1210.13	1487.1
288.15 K, x1 = 0.3013	1231.45	1462.7
288.15 K, x1 = 0.4012	1243.63	1444.7
288.15 K, x1 = 0.496	1251.19	1432
288.15 K, x1 = 0.6017	1257.22	1421
288.15 K, x1 = 0.7007	1261.36	1412.4
288.15 K, x1 = 0.8551	1266.2	1403.7
288.15 K, x1 = 0.9006	1267.39	1400.7
288.15 K, x1 = 1	1269.97	1396.3
298.15 K, x1 = 0.04992	1109.08	1526.5
298.15 K, x1 = 0.1001	1157.27	1503
298.15 K, x1 = 0.1498	1184.63	1484.1
298.15 K, x1 = 0.1998	1202.11	1467.7
298.15 K, x1 = 0.3013	1223.27	1440.8
298.15 K, x1 = 0.4012	1235.48	1422
298.15 K, x1 = 0.496	1243.13	1409
298.15 K, x1 = 0.6017	1249.23	1397.9
298.15 K, x1 = 0.7007	1253.44	1389.3
298.15 K, x1 = 0.8551	1258.37	1380.5
298.15 K, x1 = 0.9006	1259.57	1377.5
298.15 K, x1 = 1	1262.21	1373.1
308.15 K, x1 = 0.04992	1102.81	1522.5
308.15 K, x1 = 0.1001	1149.85	1490.2
308.15 K, x1 = 0.1498	1176.7	1466.4
308.15 K, x1 = 0.1998	1193.95	1447.6
308.15 K, x1 = 0.3013	1215.04	1418.7
308.15 K, x1 = 0.4012	1227.32	1399.3
308.15 K, x1 = 0.496	1235.04	1386.3
308.15 K, x1 = 0.6017	1241.24	1375.1
308.15 K, x1 = 0.7007	1245.51	1366.7
308.15 K, x1 = 0.8551	1250.54	1357.8
308.15 K, x1 = 0.9006	1251.76	1355
308.15 K, x1 = 1	1254.44	1350.6
318.15 K, x1 = 0.04992	1096.1	1515.2
318.15 K, x1 = 0.1001	1142.14	1475.1
318.15 K, x1 = 0.1498	1168.57	1447.5
318.15 K, x1 = 0.1998	1185.67	1426.7
318.15 K, x1 = 0.3013	1206.74	1396.3
318.15 K, x1 = 0.4012	1219.13	1376.7
318.15 K, x1 = 0.496	1226.96	1363.7
318.15 K, x1 = 0.6017	1233.26	1352.5
318.15 K, x1 = 0.7007	1237.61	1344.3
318.15 K, x1 = 0.8551	1242.74	1335.7
318.15 K, x1 = 0.9006	1243.97	1333
318.15 K, x1 = 1	1246.71	1328.6
328.15 K, x1 = 0.04992	1088.96	1504.9
328.15 K, x1 = 0.1001	1134.15	1458.2
328.15 K, x1 = 0.1498	1160.26	1427.4
328.15 K, x1 = 0.1998	1177.26	1405
328.15 K, x1 = 0.3013	1198.39	1373.8
328.15 K, x1 = 0.4012	1210.91	1354.1
328.15 K, x1 = 0.496	1218.87	1341.2
328.15 K, x1 = 0.6017	1225.3	1330.3
328.15 K, x1 = 0.7007	1229.73	1322.3
328.15 K, x1 = 0.8551	1234.98	1314
328.15 K, x1 = 0.9006	1236.23	1311.3
328.15 K, x1 = 1	1239.01	1307.1
338.15 K, x1 = 0.04992	1081.43	1492
338.15 K, x1 = 0.1001	1125.92	1439.7
338.15 K, x1 = 0.1498	1151.76	1406.4
338.15 K, x1 = 0.1998	1168.74	1382.8
338.15 K, x1 = 0.3013	1189.99	1351.2
338.15 K, x1 = 0.4012	1202.68	1331.6
338.15 K, x1 = 0.496	1210.79	1319
338.15 K, x1 = 0.6017	1217.37	1308.4
338.15 K, x1 = 0.7007	1221.89	1300.7
338.15 K, x1 = 0.8551	1227.27	1292.7
338.15 K, x1 = 0.9006	1228.53	1290.2
338.15 K, x1 = 1	1231.35	1286.1

— the NIST ThermoML archive (doi:10.1021/je300134c)
